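Cultured in 96-well plates, cells were exposed to test compound for 48 hours across five concentrations. Here, GI50 denotes the concentration required for 50% inhibition of growth. TGI marks complete inhibition of growth.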
Legend:
Assay in all cases: inhibition of tumour cell growth, NCI panel, 48 h
SF-295 CNS = test system: SF-295 CNS
SNB-19 CNS = test system: SNB-19 CNS
HCT-116 colon = test system: HCT-116 colon
U251 CNS = test system: U251 CNS
NCI-H522 lung = test system: NCI-H522 lung
CAKI-1 renal = test system: CAKI-1 renal
CCRF-CEM leukemia = test system: CCRF-CEM leukemia
SK-MEL-28 melanoma = test system: SK-MEL-28 melanoma
COLO 205 colon = test system: COLO 205 colon
SK-MEL-5 melanoma = test system: SK-MEL-5 melanoma

Row | SMILES | GI50 (SF-295 CNS) [µM] | TGI (SF-295 CNS) [µM] | GI50 (SNB-19 CNS) [µM] | TGI (SNB-19 CNS) [µM] | GI50 (HCT-116 colon) [µM] | TGI (HCT-116 colon) [µM] | GI50 (U251 CNS) [µM] | TGI (U251 CNS) [µM] | GI50 (NCI-H522 lung) [µM] | TGI (NCI-H522 lung) [µM] | GI50 (CAKI-1 renal) [µM] | TGI (CAKI-1 renal) [µM] | GI50 (CCRF-CEM leukemia) [µM] | TGI (CCRF-CEM leukemia) [µM] | GI50 (SK-MEL-28 melanoma) [µM] | TGI (SK-MEL-28 melanoma) [µM] | GI50 (COLO 205 colon) [µM] | TGI (COLO 205 colon) [µM] | GI50 (SK-MEL-5 melanoma) [µM] | TGI (SK-MEL-5 melanoma) [µM]
1 | CN1C=CN(Cc2ccc(-c3ccccn3)nc2)[CH-]1.CN1C=CN(Cc2ccc(-c3ccccn3)nc2)[CH-]1.[Au+3] | 4.87 | > 100 | 7.83 | 40 | 2.4 | 10.9 | 4.35 | 20.8 | 0.104 | 0.494 | 18.4 | > 100 | 0.0834 | 13.4 | 2.47 | 14.5 | 0.421 | 17.8 | 1.36 | 17.8
2 | CC(=O)OCC1OC(O[C@@H]2C[C@H]3C(C)(C)[C@H](OC(C)=O)CC[C@]3(C)[C@H]3CC[C@@H]4[C@]5(CC[C@@]4(C)[C@@]32C)O[C@@H]([C@H](O)C(C)(C)O)C[C@@H]5C)C(O)C(O)C1O (some centres not stated) | 6.43 | 19.2 | 12.5 | 30.5 | 3.81 | 15.1 |  | 19.1 | 7.1 | 21.2 |  | 13.5 | 3.16 | 20 | 10.2 | 24 | 4.11 | 14.3 | 10.7 | 22.5
3 | COc1cc(Nc2ncc(-c3ccccc3)o2)cc(OC)c1OC | 2.7 | > 25 | 12.6 | > 25 | 1.45 | > 25 | 4.35 | > 25 | 0.925 | > 25 | 0.37 | > 25 | 7.32 | > 25 | 4.38 | > 25 | 2.15 | > 25 | 0.138 | 
4 | C[Si](C)(C)[C@@]1([Se]c2ccccc2)CC[C@@H]1C(=O)c1ccccc1 |  | > 100 |  | > 100 |  | > 100 |  | > 100 |  | 58.1 |  | > 100 |  | > 100 |  | > 100 |  | > 100 |  | 37.4
5 | Fc1cc(Nc2ccc3c(OCCCN4CCOCC4)cccc3n2)ccc1Cl | 1.97 | 3.96 | 2.21 | 5.29 | 2.76 | 7.16 | 1.85 | 3.75 | 1.72 | 3.35 | 1.89 | 5.1 | 2.48 | 8.66 | 1.82 | 3.56 | 1.82 | 3.43 | 2.1 | 4.39
6 | Cc1cc(I)cc(CN(C)CCCCN2CCCC2)c1O | 13.2 | 28.6 | 27.8 | 96.1 | 13.1 | 40 | 18.9 | 49.5 | 22.4 | 46.2 | 17.5 | 38.9 | 31.3 | > 100 | 13.4 | 27.8 | 13.4 | 26.1 | 12.7 | 25.2
7 | Cc1ccc(Nc2ccnc(Nc3cccc(C(N)=O)c3)n2)cc1O | 7.69 | > 25 | 11.5 | > 25 | 8.01 | > 25 | 7.84 | > 25 | 3.22 | > 15.1 | 4.11 | 19 | 7.99 | > 25 | 11.2 | > 25 | 10.1 | > 20.6 | 6.63 | > 21.6
8 | CC12CC(=O)NN=C1c1ccccc1C2 (configuration not stated) |  | > 100 |  | > 100 |  | > 100 |  | > 100 |  | > 100 |  | > 100 |  | > 100 |  | > 100 |  | > 100 |  | > 100
9 | O=C(O)C1C2CC3CC2CC31 (configuration not stated) |  | > 100 |  | > 100 |  | > 100 |  | > 100 |  | > 100 |  | > 100 |  | > 100 |  | > 100 |  | > 100 |  | > 100
10 | O=c1c2c(=NCCCN3CCCC3)cc3c(=O)n(CCCN4CCCC4)c(=O)c4c(NCCCN5CCCC5)cc(c(O)n1CCCN1CCCC1)c2c4-3 | 1.95 | 8.61 | 2.11 | 10.6 | 2.01 | 6.43 | 0.647 | 10.4 | 1.44 | 5.53 | 10.6 | 42 | 5.22 | 71 | 2.53 | 5.31 | 1.89 | 4.21 | 2.67 | 7.17
11 | CC(Cl)CC(=O)Nc1ccc2c(c1)oc(=O)c1cc(NC(=O)CC(C)Cl)ccc12 (configuration not stated) | 10.1 | 36.5 | 20.4 | 69.7 | 12.4 | 40 | 11.1 | 23.7 | 15.2 | 36.8 | 19.7 | > 100 | 11.1 | 29 | 16.4 | 34.2 | 14.4 | > 100 | 11.5 | 27.9
12 | COc1cc(SC)ccc1C(=O)N1CCCC(C)C1 (configuration not stated) | > 100 | > 100 | > 100 | > 100 | > 100 | > 100 | > 100 | > 100 | > 100 | > 100 | > 100 | > 100 | > 100 | > 100 | > 100 | > 100 | > 100 | > 100 | 33.3 | > 100
13 | CCCC/C(C)=N/NC(N)=S |  | > 100 |  | > 100 |  | > 100 |  | > 100 |  | > 100 |  | > 100 |  | > 100 |  | > 100 |  | > 100 |  | > 100
14 | C=C(C)[C@@H]1CC[C@]2(C#N)CC[C@]3(C)[C@H](CC[C@@H]4[C@@]5(C)CCCNC(C)(C)[C@@H]5CC[C@]43C)[C@@H]12 | 1.7 | 3.1 | 2.29 | 4.69 | 1.75 | 3.19 | 1.75 | 3.13 | 1.93 | 3.61 | 3.2 | 11.5 | 2.73 | 9.38 | 1.92 | 3.5 | 1.96 | 3.51 | 1.71 | 3.08
